Data on 1 compound can be found in ChEMBL document CHEMBL5727906, “Adenosine A3 receptor modulators” (2020).

Structures are written as SMILES.

One experiment addresses T1, Adenosine receptor A3 (Homo sapiens, UniProt P0DMS8).
T1 sequence (P0DMS8 whole entry): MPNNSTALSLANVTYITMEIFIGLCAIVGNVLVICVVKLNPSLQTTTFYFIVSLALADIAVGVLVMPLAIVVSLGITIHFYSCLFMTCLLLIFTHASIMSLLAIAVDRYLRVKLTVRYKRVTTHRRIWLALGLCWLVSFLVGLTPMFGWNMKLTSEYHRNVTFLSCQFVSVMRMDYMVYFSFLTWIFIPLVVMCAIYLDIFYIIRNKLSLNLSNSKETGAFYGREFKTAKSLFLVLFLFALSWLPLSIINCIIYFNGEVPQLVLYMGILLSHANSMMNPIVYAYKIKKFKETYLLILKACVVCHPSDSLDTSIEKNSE
In words: Competition Radioligand Binding Assay: A3 Adenosine Receptor:Competitive assays were carried out by incubation of membranes from human A3 receptors transfected to CHO cells, [3H]-NECA, buffer (20 mM HEPES (pH 7.4), 100 mM NaCl, 10 mM MgCl2, 2 units/ml adenosine deaminase), and unlabelled ligand in a total volume of 0.2 ml for 60 min at 25° C. R-PIA was used to determine nonspecific binding. It was filtered over Schleicher & Schuell GF/52 (presoaked with 0.5% polyethyleneimine) in a Brandel cell harvester. The unbound radioligand was removed with 3×250 μl of 20 mM HEPES (pH 7.4), 100 mM NaCl, 10 mM MgCl2.

In the next experiment the target is T2, Adenosine receptor A1 (Homo sapiens, UniProt P30542).
T2 sequence (P30542 whole entry): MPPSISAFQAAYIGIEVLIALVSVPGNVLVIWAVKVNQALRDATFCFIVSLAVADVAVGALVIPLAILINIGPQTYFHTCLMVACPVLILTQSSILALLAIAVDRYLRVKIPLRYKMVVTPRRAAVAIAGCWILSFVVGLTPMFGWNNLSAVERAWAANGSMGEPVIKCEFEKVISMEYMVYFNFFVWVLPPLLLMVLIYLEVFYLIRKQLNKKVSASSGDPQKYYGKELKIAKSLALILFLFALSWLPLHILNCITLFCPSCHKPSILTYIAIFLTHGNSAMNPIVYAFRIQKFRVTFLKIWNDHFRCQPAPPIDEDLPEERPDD
The experiment is described as follows: Competition Radioligand Binding Assay: Adenosine A1 Receptor: Competition assays were carried out by incubation of human recombinant membranes of adenosine receptors from hA1 receptors transfected to CHO cells, [3H] DPCPX as radioligand, buffer (HEPES 20 mM (pH=7.4), 10 mM MgCl2, 100 mM NaCl, 2 U/mL of deaminase adenosine and non-labelled ligand in a total volume of 0.2 mL for 90 min at 25° C. R-PIA was used to determinate non-specific binding. Filter over Schleicher & Schuell GF/52 (pre-soaked 0.5% polyethylenimine) in a Brandel cell harvester. Unbound radioligand was removed with HEPES 30 mM (3×250 μl), NaCl (100 mM) and MgCl2 (10 mM).

The target in another experiment is Adenosine receptor A2a (Homo sapiens, UniProt P29274). In words: Competition Radioligand Binding Assay: A2A Adenosine Receptor: Competitive assays were carried out by incubation of membranes from human A2A receptors transfected to HeLa cells, [3H]-ZM241385, buffer (Tris-HCl 50 mM (pH=7.4), 10 mM MgCl2, EDTA 1 mM and 2 units/ml adenosine deaminase), and unlabelled ligand in a total volume of 0.2 ml for 60 min at 25° C. NECA was used to determine nonspecific binding. It was filtered over Schleicher & Schuell GF/52 (presoaked with 0.5% polyethyleneimine) in a Brandel cell harvester. The unbound radioligand was removed with 3×250 μl of 20 mM Tris-HCl 50 mM (pH=7.4), 10 mM MgCl2, EDTA 1 mM.

The target of a further experiment is T3, Adenosine receptor A2b (Homo sapiens, UniProt P29275).
T3 sequence (P29275 whole entry): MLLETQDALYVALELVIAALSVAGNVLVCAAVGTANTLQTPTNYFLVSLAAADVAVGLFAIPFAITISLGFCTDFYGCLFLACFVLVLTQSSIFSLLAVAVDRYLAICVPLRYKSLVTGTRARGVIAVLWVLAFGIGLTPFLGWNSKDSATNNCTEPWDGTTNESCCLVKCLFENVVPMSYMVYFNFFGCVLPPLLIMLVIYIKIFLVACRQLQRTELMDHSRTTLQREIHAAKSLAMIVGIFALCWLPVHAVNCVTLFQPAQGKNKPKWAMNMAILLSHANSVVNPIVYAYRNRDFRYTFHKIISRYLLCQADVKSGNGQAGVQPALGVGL
The experiment is described as follows: Competition Radioligand Binding Assay: A2B Adenosine Receptor: The binding assay for adenosine A2B receptor subtype was carried out on human recombinant source (HEK-293 cells) and [3H]DPCPX as radioligand.

Adenosine receptor A2a, sequence (P29274 whole entry): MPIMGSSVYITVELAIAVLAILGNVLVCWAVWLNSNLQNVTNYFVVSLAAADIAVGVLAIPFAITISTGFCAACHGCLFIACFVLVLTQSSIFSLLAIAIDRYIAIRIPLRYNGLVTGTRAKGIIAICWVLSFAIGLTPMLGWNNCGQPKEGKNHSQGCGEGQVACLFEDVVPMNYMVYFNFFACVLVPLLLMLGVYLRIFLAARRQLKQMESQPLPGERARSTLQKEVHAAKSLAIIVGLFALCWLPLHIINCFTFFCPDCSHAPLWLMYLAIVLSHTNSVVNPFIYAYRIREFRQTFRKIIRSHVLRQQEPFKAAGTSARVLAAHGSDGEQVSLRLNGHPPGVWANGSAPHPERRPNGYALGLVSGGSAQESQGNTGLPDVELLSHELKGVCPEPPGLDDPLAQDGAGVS

One may read the Ki as a dissociation constant, usually derived from enzyme kinetics or from competition with a known ligand. On to `COc1ccc(-c2nc(NC(=O)c3ccc(N4CCC(C(=O)O)CC4)nc3)sc2C#N)cc1`, for which the inhibitory constant (Ki) at Adenosine receptor A3 was 47.6 nM; at Adenosine receptor A1 it was over 1000 nM; at Adenosine receptor A2a it was over 1000 nM; on Adenosine receptor A2b, over 1000 nM.
